Several values for one entry are separate records, joined by “and”; a condition that tells them apart may be missing. Identical values can stand only once.
Experiments:
Z-138 cells = experiment: Cell proliferation assay (IncuCyte confluence), Z-138; format: cell-based; details: Homo sapiens; Z-138 non-Hodgkin lymphoma; 72 h; mean of two independent experiments ± SEM; read-out: IC50 antiproliferative activity Z-138
Description: Cancer cell lines HCT-116, NCI-H460, HL-60, K-562 and Z-138 were acquired from the American Type Culture Collection (ATCC, Manassas, VA, USA). The DND-41 cell line was purchased from the Deutsche Sammlung von Mikroorganismen und Zellkulturen (DSMZ Leibniz-Institut, Brunswick, Germany), and the HAP-1 cell line was ordered from Horizon Discovery (Horizon Discovery Group, Water Beach, UK). All cell lines were cultured as recommended by the suppliers. Culture media were purchased from Gibco Life Technologies and supplemented with 10% fetal bovine serum (HyClone, GE Healthcare Life Sciences, Chicago, Illinois, USA).
(§1) Adherent cell lines HCT-116, NCI-H460 and Hap-1 cells were seeded at a density between 500 and 1500 cells per well in 384-well tissue culture plates (Greiner). After overnight incubation, cells were treated with different concentrations of the test compounds. Suspension cell lines HL-60, K-562, Z-138 and DND-41 were seeded at densities ranging from 2500 to 5500 cells per well in 384-well culture plates containing the test compounds at the same concentration points.

XPO1 = biological target: T1, XPO1 (Homo sapiens, UniProt O14980); experiment: XPO1 phenotypic reporter assay in HeLa NLSSV40-AcGFP-NESPKI cells; format: cell-based; details: HeLa GFP reporter cell line; 2 h treatment; mean ± SEM of two independent experiments; read-out: XPO1 inhibition IC50
T1 construct: the compounds were assayed in a reporter cell line based on the subcellular localization of a XPO1-dependent GFP reporter cargo protein; endogenous in cells; host or cells: HeLa cells stably transfected with the NLSSV40-AcGFP-NESPKI reporter (only the reporter cargo is transfected, not XPO1)
T1 sequence (O14980 whole entry): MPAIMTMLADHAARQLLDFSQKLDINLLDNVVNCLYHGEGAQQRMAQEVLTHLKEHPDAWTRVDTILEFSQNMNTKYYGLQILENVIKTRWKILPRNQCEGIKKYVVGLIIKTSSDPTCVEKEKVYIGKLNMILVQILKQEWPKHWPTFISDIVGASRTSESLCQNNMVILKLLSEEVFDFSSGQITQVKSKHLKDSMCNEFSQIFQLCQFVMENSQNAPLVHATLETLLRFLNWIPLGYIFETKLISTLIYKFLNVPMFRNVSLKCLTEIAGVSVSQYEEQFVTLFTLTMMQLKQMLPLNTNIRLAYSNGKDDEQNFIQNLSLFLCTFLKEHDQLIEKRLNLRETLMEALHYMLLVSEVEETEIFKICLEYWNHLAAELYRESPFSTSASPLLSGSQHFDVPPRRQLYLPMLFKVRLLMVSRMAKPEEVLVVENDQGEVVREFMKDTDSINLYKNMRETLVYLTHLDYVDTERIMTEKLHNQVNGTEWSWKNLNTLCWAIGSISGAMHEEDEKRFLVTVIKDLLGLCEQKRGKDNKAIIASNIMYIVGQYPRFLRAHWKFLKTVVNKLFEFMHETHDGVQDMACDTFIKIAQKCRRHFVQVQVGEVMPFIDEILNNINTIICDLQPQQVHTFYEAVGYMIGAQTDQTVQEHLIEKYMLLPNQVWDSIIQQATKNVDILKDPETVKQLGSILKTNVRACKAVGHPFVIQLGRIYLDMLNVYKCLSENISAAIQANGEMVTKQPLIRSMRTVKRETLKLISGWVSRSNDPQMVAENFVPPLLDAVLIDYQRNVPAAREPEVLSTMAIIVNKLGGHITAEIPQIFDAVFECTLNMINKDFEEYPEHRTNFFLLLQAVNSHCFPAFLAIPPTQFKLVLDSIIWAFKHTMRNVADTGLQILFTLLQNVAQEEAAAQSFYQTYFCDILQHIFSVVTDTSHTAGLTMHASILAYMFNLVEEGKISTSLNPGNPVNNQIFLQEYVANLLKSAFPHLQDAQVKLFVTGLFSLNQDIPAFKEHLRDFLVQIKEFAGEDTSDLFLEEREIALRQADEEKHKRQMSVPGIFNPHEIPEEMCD
Description: Stably transfected HeLa NLSSV40-AcGFP-NESPKI were cultured as described in Vercruysse et al.
To study the XPO1-mediated nuclear export, stably transfected HeLa NLSSV40-AcGFP-NESPKI reporter cells were seeded at 8000 cells per well in 96-well all clear tissue culture plates (TPP). After overnight incubation, cells were treated with different doses of compound or solvent (DMSO) for 2 h and then fixed and counterstained with DAPI. Fluorescence was read on an ArrayScan XTI High Content Reader (Thermo Fisher Scientific, Waltham, MA, USA). Nuclear and cytoplasmic compartments were segmented and their average pixel intensities in the green channel were quantitated employing the HCS Studio software. Genedata Screener software was used for dose-response curve fitting, and calculation of EC50 values was based on the percentage of cells having a predominant nuclear localisation (ratio of nuclear to cytoplasmic signal equal or above 1.4) of the reporter construct. Compounds were tested in two independent experiments and represented as mean ± SEM.

[1] = GSH reactivity assay (HPLC, DTNB quench); format: physicochemical; details: 500 µM compound, 5 mM GSH, 37 °C; for Reaction with GSH (hetero-Michael addition), qualitative: PBS pH 7.4 with EDTA:DMSO 1:1; for Reversibility of GSH adducts (retro-Michael), qualitative: longer incubation
Description: In order to determine if these chalcones could react with thiol groups through a hetero-Michael addition reaction, a few selected compounds (9, 10, 13 and 18) were incubated with glutathione (GSH). After different incubation times, the reactions were quenched by adding 5,5′-dithiobis(2-nitrobenzoic acid) (DTNB, Ellman´s reagent) (1:1 ratio with respect to the initial concentration of GSH). The course of the reaction was followed by HPLC, adapting reported procedures. […] Thus, although this assay is only qualitative, the tendency observed among these chalcones nicely fits the reactivity described for α-X-2´3,4,4´-tetramethylchalcones.
A 500 µM sample of the tested compound was incubated with 5 mM reduced L-glutathione for 24 h at 37 °C with a final volume of 200 μL. As a solvent system, 20 mM PBS buffer pH 7.4 with 2 mM EDTA:DMSO (1:1) was used. To perform the assay, stock solutions of 20 mM of the chalcones (9, 10, 13 and 18) and 15 mM of reduced L-glutathione were freshly prepared for every experiment and then diluted properly to give the final electrophile:nucleophile ratio (1:10). A 5 mM solution of 5,5′-dithiobis(2-nitrobenzoic acid) (DTNB) was prepared in the same solvent system to quench the reaction. After different time points (10 min, 1 h, 4 h and 24 h), an aliquot of 20 μL of the incubation mixture was quenched by adding 20 μL of the DTNB stock solution, mixed thoroughly, and then analyzed by HPLC. HPLC analysis was performed in Agilent 1120 compact LC, column ACE 5 C18-300 (15 cm × 4.6 mm); UV detection was performed at λ = 254 nm. Solvents used were acetonitrile for bottle A and H2O (containing 0.05% TFA) for bottle B, and the flow rate was 1mL/min. The gradients used were: (A) incubations with chalcone 9: from 10% to 80% of solvent A in 10 min; (B) incubations with chalcones 10 and 18: from 10% to 100% of solvent A in 10 min. The new peaks were analysed by LC-MS. As controls, a 500 μM solution of the α,β-unsaturated compound was also analysed, and a 5 mM reduced L-glutathione solution was quenched by adding DNTB at the same time points. In general, after 6 h of incubation, no GSH was detected.

[2] = tested on: panel of cancer cell lines; experiment: Antiproliferative activity, panel of cancer cell lines; format: cell-based; details: for Fold less potent than KPT-330 (antiproliferative IC50): all cell lines tested; for Antiproliferative activity, in words: panel of cancer cell lines
Description: as §1

IC50 (XPO1)	Reaction with GSH (hetero-Michael addition), qualitative [1]	Fold less potent than KPT-330 (antiproliferative IC50) [2]	Structure (SMILES)	IC50 (Z-138 cells)	Reversibility of GSH adducts (retro-Michael), qualitative [1]	Antiproliferative activity, in words [2]
2500 nM and 2460 nM	quickly reacted with GSH	5- to 30 fold	O=C(/C=C/c1cncnc1)c1ccc2ccccc2c1 [Compound 9, (E)-1-(Naphthalen-2-yl)-3-(pyrimidin-5-yl)prop-2-en-1-one]	1800 ± 50 nM	underwent a retro-Michael addition reaction	single digit µM IC50 values
550 ± 190 nM	quickly reacted with GSH	5- to 30 fold	COc1cc(OC)cc(C(=O)/C=C/c2cncnc2)c1 [Compound 10, (E)-1-(3′,5′-Dimethoxyphenyl)-3-(pyrimidin-5′’-yl)prop-2-en-1-one]	500 ± 50 nM	underwent a retro-Michael addition reaction	single digit µM IC50 values
